Assay results from ChEMBL document CHEMBL5143574, “Unraveling the anti-virulence potential and antifungal efficacy of 5-aminotetrazoles using the zebrafish model of disseminated candidiasis” (Eur J Med Chem, 2022).
Converted amounts (≈) assume the structure as drawn. The source made the active and inactive calls. The rule behind the calls is not given here.

Key:
Candida albicans [1] = assay: Antifungal activity against Candida albicans SC5314 assessed as inhibition of fungal growth incubated for 24 hrs by broth microdilution assay; assay type: functional
[2] = Toxicity in zebrafish embryos assessed as mortality treated at 6 hpf and measured at 120 hpf by stereomicroscopic analysis; set-up: species or system Danio rerio; details: in vivo
Candida albicans [3] = assay: Anti-virulence activity against Candida albicans SC5314 assessed as inhibition of fungal filamentation by measuring reduction in hyphae formation in YPS medium at 5 uM incubated for 3 to 5 days by stereomicroscopic analysis; assay type: functional, organism-based; details: time 3-5 day
Candida albicans [4] = assay: Anti-virulence activity against Candida albicans SC5314 assessed as inhibition of fungal filamentation by measuring reduction in hyphae formation in Lee medium at 5 uM incubated for 3 to 5 days by stereomicroscopic analysis; assay type: functional, organism-based; details: time 3-5 day
Candida albicans [5] = assay: Anti-virulence activity against Candida albicans SC5314 assessed as inhibition of fungal filamentation by measuring reduction in hyphae formation in RPMI medium at 5 uM incubated for 3 to 5 days by stereomicroscopic analysis; assay type: functional, organism-based; details: time 3-5 day
Candida albicans [6] = assay: Anti-virulence activity against Candida albicans SC5314 assessed as inhibition of fungal filamentation by measuring reduction in hyphae formation in YPS plus uridine medium at 5 uM incubated for 3 to 5 days by stereomicroscopic analysis; assay type: functional, organism-based; details: time 3-5 day
Candida albicans [7] = assay: Anti-virulence activity against Candida albicans SC5314 assessed as inhibition of fungal filamentation by measuring reduction in hyphae formation in Spider medium at 5 uM incubated for 3 to 5 days by stereomicroscopic analysis; assay type: functional, organism-based; details: time 3-5 day
Candida albicans [8] = assay: Anti-virulence activity against Candida albicans SC5314 assessed as inhibition of fungal filamentation by measuring reduction in hyphae formation in GlcNAc medium upto 10 uM incubated for 3 to 5 days by stereomicroscopic analysis; assay type: functional, organism-based; details: time 3-5 day
Candida albicans [9] = assay: Anti-virulence activity against Candida albicans SC5314 assessed as inhibition of fungal filamentation by measuring reduction in hyphae formation in Spider medium upto 10 uM incubated for 3 to 5 days by stereomicroscopic analysis; assay type: functional, organism-based; details: time 3-5 day
Candida albicans [10] = assay: Anti-virulence activity against Candida albicans SC5314 assessed as inhibition of fungal filamentation by measuring reduction in hyphae formation in Lee medium upto 10 uM incubated for 3 to 5 days by stereomicroscopic analysis; assay type: functional, organism-based; details: time 3-5 day
Candida albicans [11] = assay: Anti-virulence activity against Candida albicans SC5314 assessed as inhibition of fungal filamentation by measuring reduction in hyphae formation in SLAD medium upto 10 uM incubated for 3 to 5 days by stereomicroscopic analysis; assay type: functional, organism-based; details: time 3-5 day
Candida albicans [12] = assay: Anti-virulence activity against Candida albicans SC5314 assessed as inhibition of fungal filamentation by measuring reduction of hyphae formation in RPMI medium upto 10 uM incubated for 3 to 5 days by stereomicroscopic analysis; assay type: functional, organism-based; details: time 3-5 day
Candida albicans [13] = assay: Anti-virulence activity against Candida albicans SC5314 assessed as inhibition of fungal filamentation by measuring reduction in hyphae formation in YPS medium upto 10 uM incubated for 3 to 5 days by stereomicroscopic analysis; assay type: functional, organism-based; details: time 3-5 day
Candida albicans [14] = assay: Anti-virulence activity against Candida albicans SC5314 assessed as inhibition of fungal filamentation by measuring reduction in hyphae formation in YPS plus uridine medium upto 10 uM incubated for 3 to 5 days by stereomicroscopic analysis; assay type: functional, organism-based; details: time 3-5 day
[15] = Toxicity against zebrafish embryo infected with 53-75 RFP expressing cells of Candida albicans M137 assessed as mortality at 2.5 to 10 uM treated at 1 hr post-infection and measured on day 4 post-infection; set-up: species or system Danio rerio; details: 96 h, dose 2.5-10 µM, time 4 day
[16] = Hepatotoxicity in zebrafish embryos assessed as liver darkening at 25 uM treated at 6 hpf and measured at 120 hpf by stereomicroscopic analysis; assay type: toxicity, Danio rerio; details: in vivo
[17] = Toxicity in zebrafish embryos assessed as toxic responses at 200 uM treated at 6 hpf and measured at 120 hpf by stereomicroscopic analysis; set-up: species or system Danio rerio; details: in vivo, 24 h
Candida albicans [18] = assay: Anti-virulence activity against Candida albicans SC5314 assessed as inhibition of fungal filamentation by measuring reduction of hyphae formation in GlcNAc medium at 1.3 uM incubated for 3 to 5 days by stereomicroscopic analysis; assay type: functional, organism-based; details: time 3-5 day
Candida albicans [19] = assay: Anti-virulence activity against Candida albicans SC5314 assessed as inhibition of fungal filamentation by measuring reduction of hyphae formation in Lee medium at 1.3 uM incubated for 3 to 5 days by stereomicroscopic analysis; assay type: functional, organism-based; details: time 3-5 day
Candida albicans [20] = assay: Anti-virulence activity against Candida albicans SC5314 assessed as inhibition of fungal filamentation by measuring reduction of hyphae formation in YPS plus uridine medium at 1.3 uM incubated for 3 to 5 days by stereomicroscopic analysis; assay type: functional, organism-based; details: time 3-5 day
Candida albicans [21] = assay: Anti-virulence activity against Candida albicans SC5314 assessed as inhibition of fungal filamentation by measuring reduction of hyphae formation in SLAD medium at 1.3 uM incubated for 3 to 5 days by stereomicroscopic analysis; assay type: functional, organism-based; details: time 3-5 day
Candida albicans [22] = assay: Anti-virulence activity against Candida albicans SC5314 assessed as inhibition of fungal filamentation by measuring reduction of hyphae formation in RPMI medium at 1.3 uM incubated for 3 to 5 days by stereomicroscopic analysis; assay type: functional, organism-based; details: time 3-5 day
Candida albicans [23] = assay: Anti-virulence activity against Candida albicans SC5314 assessed as inhibition of fungal filamentation by measuring reduction of hyphae formation in Spider medium at 1.3 uM incubated for 3 to 5 days by stereomicroscopic analysis; assay type: functional, organism-based; details: time 3-5 day
Candida albicans [24] = assay: Anti-virulence activity against 53-75 RFP expressing cells of Candida albicans M137 in hind brain of zebra fish embryo disseminated candidiasis model assessed as inhibition of fungal filamentation by measuring reduction of hyphae formation in the hind brain at 10 uM treated at 1 hr post-infection and measured on day 4 post infection by fluorescence microscopy; assay type: functional; details: M137, 96 h, time 4 day
Candida albicans [25] = assay: Anti-virulence activity against Candida albicans SC5314 assessed as inhibition of fungal filamentation by measuring reduction of hyphae formation in YPS medium at 1.3 uM incubated for 3 to 5 days by stereomicroscopic analysis; assay type: functional, organism-based; details: time 3-5 day
[26] = Hepatotoxicity in zebrafish embryos assessed as liver failure by measuring necrotic and decreased liver with non-resorbed yolk at 0.25 uM treated at 6 hpf and measured at 120 hpf by stereomicroscopic analysis; assay type: toxicity, tissue-based, Danio rerio; details: in vivo
[27] = Cardiotoxicity in zebrafish embryos assessed as pericardial edema at 0.25 uM treated at 6 hpf and measured at 120 hpf by stereomicroscopic analysis; assay type: toxicity, Danio rerio

SMILES | MIC (Candida albicans [1]) | LC50 [2] | Activity (Candida albicans [3]) | Activity (Candida albicans [4]) | Activity (Candida albicans [5]) | Activity (Candida albicans [6]) | Activity (Candida albicans [7]) | other results
Cc1cc(Cl)ccc1Nc1nnnn1Cc1ccccc1 | 6.4 µM (≈ 1.92 µg/mL) | – | – | – | – | – | – | –
c1ccc(Cn2nnnc2Nc2cccnc2)cc1 | > 200 µM | > 200 µM | – | – | – | – | – | –
CCCn1nnc(N)n1 | > 200 µM | > 200 µM | – | – | – | – | – | –
CN(C)CCCNc1nccc(Nc2nnnn2Cc2ccccc2)n1 | > 200 µM | > 200 µM | – | – | – | – | – | –
c1ccc(Cn2nnc(Nc3ccccc3)n2)cc1 | > 200 µM | > 200 µM | Active | Active | Active | Active | Active | –
c1ccc(Nc2nnn(CCC34CC5CC(CC(C5)C3)C4)n2)cc1 | > 200 µM | > 200 µM | Active | Active | Active | Active | Active | –
c1ccc(Cn2nnnc2Nc2ccccc2)cc1 | > 200 µM | > 200 µM | – | – | – | – | – | Activity (Candida albicans [8]): Active; Activity (Candida albicans [9]): Active; Activity (Candida albicans [10]): Active; Activity (Candida albicans [11]): Active; Activity (Candida albicans [12]): Active; Activity (Candida albicans [13]): Active; Activity (Candida albicans [14]): Active
Clc1cccc(Nc2nnnn2Cc2ccccc2)c1 | > 200 µM | > 200 µM | – | – | – | – | – | –
CCCn1nnnc1N | > 200 µM | > 200 µM | Active | Active | Active | Active | Active | Activity [15]: Non-Toxic
Clc1ccc(Nc2nnnn2Cc2ccccc2)cc1 | > 200 µM | > 200 µM | – | – | – | – | – | –
Clc1nccc(Nc2nnnn2Cc2ccccc2)n1 | 35.4 µM (≈ 10.2 µg/mL) | – | – | – | – | – | – | Activity [16]: Toxic
Nc1nnn[nH]1 | > 200 µM | > 200 µM | Active | Active | Active | Active | Active | Activity [17]: Non-Toxic; Activity [15]: Non-Toxic
c1ccc(Nc2nnnn2CCC23CC4CC(CC(C4)C2)C3)cc1 | > 200 µM | > 200 µM | – | – | – | – | – | Activity (Candida albicans [18]): Active; Activity (Candida albicans [8]): Active; Activity (Candida albicans [19]): Active; Activity (Candida albicans [20]): Active; Activity (Candida albicans [9]): Active; Activity (Candida albicans [21]): Active; Activity (Candida albicans [22]): Active; Activity (Candida albicans [10]): Active; Activity (Candida albicans [11]): Active; Activity (Candida albicans [12]): Active; Activity (Candida albicans [23]): Active; inhibition in vivo at 10 µM (Candida albicans [24]): 100%; Activity (Candida albicans [13]): Active; Activity (Candida albicans [14]): Active; Activity [15]: Non-Toxic; Activity (Candida albicans [25]): Active
c1ccc(Nc2nnnn2-c2ccccc2)cc1 | 194 µM (≈ 46 µg/mL) | – | Active | Active | Active | Active | Active | –
COc1ccc(Nc2nnnn2Cc2ccccc2)cc1 | > 200 µM | > 200 µM | Active | Active | Active | Active | Active | –
CCCn1nnnc1Nc1ccccc1 | > 200 µM | > 200 µM | Active | Active | Active | Active | Active | –
O=Cc1ccc(Nc2nnnn2Cc2ccccc2)cc1 | > 200 µM | > 200 µM | Active | Active | Active | Active | Active | –
Nc1nnn(Cc2ccccc2)n1 | > 200 µM | > 200 µM | – | – | – | – | – | –
CCC(C)n1ncn(-c2ccc(N3CCN(c4ccc(OCC5COC(Cn6cncn6)(c6ccc(Cl)cc6Cl)O5)cc4)CC3)cc2)c1=O (stereo not drawn) [ITRACONAZOLE] | – | – | – | – | – | – | – | Activity [26]: Toxic; Activity [27]: Toxic
CC(=O)c1ccc(Nc2nnnn2Cc2ccccc2)cc1 | > 200 µM | > 200 µM | – | – | – | – | – | –
Nc1nnnn1-c1ccccc1 [FENAMOLE] | > 200 µM | > 200 µM | Active | Active | Active | Active | Active | –
O=[N+]([O-])c1ccc(Nc2nnnn2Cc2ccccc2)cc1 | > 200 µM | > 200 µM | – | – | – | – | – | –
CCCn1nnnc1Nc1ccnc(Cl)n1 | > 200 µM | > 200 µM | – | – | – | – | – | Activity (Candida albicans [8]): Active; Activity (Candida albicans [9]): Active; Activity (Candida albicans [10]): Active; Activity (Candida albicans [11]): Active; Activity (Candida albicans [12]): Active; Activity (Candida albicans [13]): Active; Activity (Candida albicans [14]): Active
Nc1nnn(CCC23CC4CC(CC(C4)C2)C3)n1 | > 200 µM | > 200 µM | – | – | – | – | – | Activity (Candida albicans [18]): Active; Activity (Candida albicans [8]): Active; Activity (Candida albicans [19]): Active; Activity (Candida albicans [20]): Active; Activity (Candida albicans [9]): Active; Activity (Candida albicans [21]): Active; Activity (Candida albicans [22]): Active; Activity (Candida albicans [10]): Active; Activity (Candida albicans [11]): Active; Activity (Candida albicans [12]): Active; Activity (Candida albicans [23]): Active; Activity (Candida albicans [13]): Active; Activity (Candida albicans [14]): Active; Activity (Candida albicans [25]): Active
N#Cc1ccc(Nc2nnnn2Cc2ccccc2)cc1 | > 200 µM | > 200 µM | – | – | – | – | – | –
COC(=O)c1cccc(Nc2nnnn2Cc2ccccc2)c1 | 35.4 µM (≈ 11 µg/mL) | – | – | – | – | – | – | –
c1ccc(Nc2nn[nH]n2)cc1 | > 200 µM | > 200 µM | – | – | – | – | – | Activity [17]: Non-Toxic
Nc1nnnn1Cc1ccccc1 | > 200 µM | > 200 µM | Active | Active | Active | Active | Active | –
CCCn1nnc(Nc2ccccc2)n1 | > 200 µM | > 200 µM | Active | Active | Active | Active | Active | –
